ChEMBL document CHEMBL1201862, “PubChem BioAssay data set” (2004)
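Test compounds were applied to cells in 96-well plates for 48 hours at 5 doses. Abbreviation: GI50, concentration required for 50% inhibition of growth.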 Activity calls are given as the source filed them. No stated cut-off is given here; in the data, active = GI50 up to about 1.1 µM and inactive = higher.

Key:
Experiment in all cases: NCI anticancer screen, dose series, 48 h
[1] = system: A498
[2] = system: ACHN
[3] = system: CAKI-1
[4] = system: COLO 205
[5] = system: EKVX
[6] = system: KM12
[7] = system: LOX IMVI
[8] = system: M14
[9] = system: MCF7
[10] = system: NCI-H226
[11] = system: NCI-H460
[12] = system: NCI/ADR-RES
[13] = system: OVCAR-5
[14] = system: OVCAR-8
[15] = system: SF-295
[16] = system: SK-OV-3
[17] = system: SN12C
[18] = system: T47D
[19] = system: UACC-257
[20] = system: DU-145

Structure (SMILES) | GI50 [1] | GI50 [2] | GI50 [3] | GI50 [4] | GI50 [5] | GI50 [6] | GI50 [7] | GI50 [8] | GI50 [9] | GI50 [10] | GI50 [11] | GI50 [12] | GI50 [13] | GI50 [14] | GI50 [15] | GI50 [16] | GI50 [17] | GI50 [18] | GI50 [19] | GI50 [20]
CCOC(=O)CCC(NC(=O)c1ccc(Nc2nc3ccccc3nc2C(=O)OCC)cc1)C(=O)OCC (configuration not stated) | 6.79 µM (inactive) | 3.58 µM (inactive) | 5.96 µM (inactive) | > 33.7 µM (inactive) | 7.38 µM (inactive) | 3.78 µM (inactive) | 5.58 µM (inactive) | 8.89 µM (inactive) | 11.3 µM (inactive) | 3.24 µM (inactive) | > 72.1 µM (inactive) | 5.46 µM (inactive) | > 28.6 µM (inactive) | 2.75 µM (inactive) | 7.71 µM (inactive) | 2.47 µM (inactive) | 15.7 µM (inactive) | 2.18 µM (inactive) | 18.9 µM (inactive) | 
COc1ccc(CCCNC(=O)Cc2cc(OC)c(OC)cc2CO)cc1OC | > 100 µM (inactive) | > 100 µM (inactive) | > 100 µM (inactive) | > 100 µM (inactive) | > 100 µM (inactive) | > 100 µM (inactive) | > 100 µM (inactive) | > 100 µM (inactive) |  | > 100 µM (inactive) | > 100 µM (inactive) | > 100 µM (inactive) | > 100 µM (inactive) | > 100 µM (inactive) |  |  | > 100 µM (inactive) | 23.3 µM (inactive) | > 100 µM (inactive) | > 100 µM (inactive)
CCOP(=O)(Nc1ccc(-c2ccccc2)cc1)OCC | > 100 µM (inactive) | > 100 µM (inactive) | > 100 µM (inactive) | > 100 µM (inactive) | 65 µM (inactive) | > 100 µM (inactive) |  | > 100 µM (inactive) | > 100 µM (inactive) |  | > 100 µM (inactive) | > 100 µM (inactive) | 77.8 µM (inactive) | > 100 µM (inactive) | > 100 µM (inactive) | > 100 µM (inactive) |  |  | > 100 µM (inactive) | > 100 µM (inactive)
CCOC(=O)C1=C(C(=O)c2ccc(C)cc2)C(c2cccc([N+](=O)[O-])c2)C(C(=O)c2ccc(C)cc2)=C(C(=O)OCC)N1 |  | 15.1 µM (inactive) | 19.5 µM (inactive) | 1.95 µM (inactive) | 24.1 µM (inactive) | 12.8 µM (inactive) | 17.6 µM (inactive) | 18.1 µM (inactive) | 16 µM (inactive) | 19.1 µM (inactive) | 31.6 µM (inactive) | 18.2 µM (inactive) | 17.2 µM (inactive) | 22.5 µM (inactive) | 16.1 µM (inactive) | 5.92 µM (inactive) | 17.6 µM (inactive) | 2.41 µM (inactive) | 21.4 µM (inactive) | 16.8 µM (inactive)
Cc1csc2nc3c(cnn3C)c(=S)n12 |  | 44.5 µM (inactive) | 34.3 µM (inactive) | > 10 µM (inactive) | 14.9 µM (inactive) | > 100 µM (inactive) | 51.6 µM (inactive) | > 100 µM (inactive) | > 100 µM (inactive) |  | > 100 µM (inactive) | > 100 µM (inactive) | > 100 µM (inactive) | > 100 µM (inactive) | > 100 µM (inactive) | 61.8 µM (inactive) | 24.2 µM (inactive) | > 10 µM (inactive) | > 100 µM (inactive) | 
O=C(NCCCNCCNC(=O)c1cc(-c2ccccc2)nc2ccccc12)c1cc(-c2ccccc2)nc2ccccc12 | 2.29 µM (inactive) | 1.79 µM (inactive) | 2.26 µM (inactive) | 1.72 µM (inactive) | 2.16 µM (inactive) | 1.91 µM (inactive) | 1.58 µM (inactive) | 2.24 µM (inactive) | 1.68 µM (inactive) | 2.32 µM (inactive) | 1.83 µM (inactive) | 2.05 µM (inactive) |  | 1.77 µM (inactive) | 1.73 µM (inactive) | 3.27 µM (inactive) | 1.72 µM (inactive) | 1.91 µM (inactive) | 1.67 µM (inactive) | 
Fc1ccc(F)c(C2SCc3nc4ccccc4n32)c1 (configuration not stated) | 43.8 µM (inactive) | 98.4 µM (inactive) | 95.5 µM (inactive) | > 100 µM (inactive) | 57.9 µM (inactive) | 72.6 µM (inactive) | 65.6 µM (inactive) | 72.1 µM (inactive) |  | > 100 µM (inactive) | 83 µM (inactive) |  | > 100 µM (inactive) | > 100 µM (inactive) | 29.5 µM (inactive) | > 100 µM (inactive) | > 100 µM (inactive) |  | 41.4 µM (inactive) | 
COC(=O)C1=CC(O)CCC1c1ccc(OC)cc1 (configuration not stated) | > 100 µM (inactive) | > 100 µM (inactive) | > 100 µM (inactive) | > 100 µM (inactive) | > 100 µM (inactive) | > 100 µM (inactive) | > 100 µM (inactive) | > 100 µM (inactive) |  | > 100 µM (inactive) | > 100 µM (inactive) |  | > 100 µM (inactive) | > 100 µM (inactive) | > 100 µM (inactive) | > 100 µM (inactive) | > 100 µM (inactive) |  | > 100 µM (inactive) | 
COc1ccc(/N=N/c2c(C)c(C#N)c(=S)n(C3OC(COC(C)=O)C(OC(C)=O)C(OC(C)=O)C3OC(C)=O)c2-c2ccccc2)cc1 (configuration not stated) | 1.5 µM (inactive) | 46.9 µM (inactive) | 9.48 µM (inactive) | 6.93 µM (inactive) |  | 8.43 µM (inactive) | 5.42 µM (inactive) | 1.94 µM (inactive) | 4.62 µM (inactive) |  | 4.76 µM (inactive) | 3.39 µM (inactive) | 13.2 µM (inactive) |  | 5.85 µM (inactive) |  | 7.96 µM (inactive) | 19.4 µM (inactive) | 22.4 µM (inactive) | 7.03 µM (inactive)
CCOC(=O)c1nc2c3c(ncn2n1)Oc1c(c(-c2ccccc2)nn1-c1ccccc1)C3c1ccc(OC)c(OC)c1 (configuration not stated) |  | 47 µM (inactive) | 50.1 µM (inactive) | > 100 µM (inactive) | 50.4 µM (inactive) | > 10 µM (inactive) | > 100 µM (inactive) | > 100 µM (inactive) | > 100 µM (inactive) |  | 22.3 µM (inactive) | 57.7 µM (inactive) | > 100 µM (inactive) | 25.9 µM (inactive) | 23.8 µM (inactive) | 92.9 µM (inactive) | > 100 µM (inactive) |  | > 100 µM (inactive) | > 100 µM (inactive)
O=S(=O)(CCC[C@H]1[C@@H](CCOCc2ccccc2)C2CCCN1O2)c1ccccc1 (some centres not stated) | > 100 µM (inactive) | > 100 µM (inactive) | > 100 µM (inactive) | > 100 µM (inactive) | 57.3 µM (inactive) | > 100 µM (inactive) |  | > 100 µM (inactive) | > 100 µM (inactive) | > 100 µM (inactive) | > 100 µM (inactive) | > 100 µM (inactive) | > 100 µM (inactive) | > 100 µM (inactive) | > 100 µM (inactive) | > 100 µM (inactive) | > 100 µM (inactive) | 59.2 µM (inactive) | > 100 µM (inactive) | 
CC(=O)C1=C(O)C(N)C2Cc3c(c(O)c4c(O)c(C)ccc4c3C)C(=O)C2(O)C1=O (configuration not stated) | 2.8 µM (inactive) | 1.35 µM (inactive) | 1.52 µM (inactive) | 1.64 µM (inactive) | 1.89 µM (inactive) | 1.9 µM (inactive) | 0.973 µM (active) | 2.47 µM (inactive) |  | 1.56 µM (inactive) | 1.3 µM (inactive) |  | 4.46 µM (inactive) | 1.39 µM (inactive) | 1.26 µM (inactive) | 3.53 µM (inactive) | 1.37 µM (inactive) |  | 2.48 µM (inactive) | 
Cc1ccc(NC(=O)/C(Cc2nc3ccc([N+](=O)[O-])cc3nc2O)=N\NC(=O)C[n+]2ccccc2)c(C)c1 |  | 20.5 µM (inactive) | 34.7 µM (inactive) | 43.5 µM (inactive) | 26.7 µM (inactive) | 74.6 µM (inactive) | 59 µM (inactive) | 89.1 µM (inactive) | 38.5 µM (inactive) | 74.6 µM (inactive) | 26.8 µM (inactive) | 40.9 µM (inactive) | > 100 µM (inactive) | 30.3 µM (inactive) | 58.1 µM (inactive) | 22.4 µM (inactive) | 32.1 µM (inactive) |  | 49.4 µM (inactive) | 32.1 µM (inactive)
CCO/N=C(/N)c1ncn(Cc2ccccc2)c1NCC(OCC)OCC | > 100 µM (inactive) | > 100 µM (inactive) | > 100 µM (inactive) | > 100 µM (inactive) | > 100 µM (inactive) | > 100 µM (inactive) | > 100 µM (inactive) | > 100 µM (inactive) |  | > 100 µM (inactive) | > 100 µM (inactive) |  | > 100 µM (inactive) | > 100 µM (inactive) | > 100 µM (inactive) | > 100 µM (inactive) | > 100 µM (inactive) |  | > 100 µM (inactive) | 
CC(C)(C)C1CCC2c3c([nH]c4ccccc34)C3C(=O)N(c4ccccc4[N+](=O)[O-])C(=O)C3C2C1 (configuration not stated) | 15.5 µM (inactive) | 9.1 µM (inactive) | 5.66 µM (inactive) | 10.5 µM (inactive) | 11.4 µM (inactive) |  | 11.9 µM (inactive) | 13.8 µM (inactive) | 3.1 µM (inactive) | 20.2 µM (inactive) | 4.25 µM (inactive) | 12.7 µM (inactive) | 16.9 µM (inactive) | 16.6 µM (inactive) | 12.3 µM (inactive) | 37.5 µM (inactive) | 14.6 µM (inactive) |  | 22.2 µM (inactive) | 8.39 µM (inactive)
